# Measured values published in BindingDB's records for doi:10.1016/j.bmcl.2014.01.058 (Novartis Institutes For Biomedical Research, 2014).
# Assays:
# [1] = Inhibition of RSK2 in mouse BAF cells assessed as YB1 phosphorylation at Ser102 by electrochemiluminescence assay
# [2] = Inhibition of recombinant full length RSK2 (unknown origin) using biotin-AGAGRSRHSSYPAGT-OH as substrate after 150 mins
Compound,IC50 [1],IC50 [2]
COc1cc(Nc2nc3cccc(-c4cccc5[nH]cnc45)c3o2)cc(OC)c1OC,800 nM,4 nM
COc1ccc(Nc2nc3cccc(-c4c(F)cccc4OC)c3o2)cc1O[C@H]1CCNC1,6300 nM,10 nM
COc1ccccc1-c1cccc2nc(Nc3cc(OC)c(OC)c(OC)c3)oc12,5700 nM,20 nM
COc1ccc(F)cc1-c1cccc2nc(Nc3cc(OC)c(OC)c(OC)c3)oc12,3700 nM,40 nM
COc1cc(C)ccc1-c1cccc2nc(Nc3cc(OC)c(OC)c(OC)c3)oc12,9700 nM,40 nM
COc1cc(Nc2nc3cccc(-c4cccc5cn[nH]c45)c3o2)cc(OC)c1OC,5700 nM,50 nM
COc1ccc(Nc2nc3cccc(-c4c(F)cccc4OC)c3o2)cc1OC,6500 nM,70 nM
COc1cc(Nc2nc3cccc(-c4c(F)cccc4OC)c3o2)cc(OC)c1,17200 nM,210 nM
COc1ccc(Nc2nc3cccc(-c4c(F)cccc4OC)c3o2)cc1N,> 20000 nM,220 nM
COc1cc(Nc2nc3cccc(-c4ccccc4F)c3o2)cc(OC)c1OC,18000 nM,220 nM
COc1cccc(F)c1-c1cccc2nc(Nc3cccc(S(N)(=O)=O)c3)oc12,> 20000 nM,340 nM
COc1cccc(Nc2nc3cccc(-c4c(F)cccc4OC)c3o2)c1,15400 nM,410 nM
CCOc1cccc(F)c1-c1cccc2nc(Nc3cc(OC)c(OC)c(OC)c3)oc12,10800 nM,490 nM
COc1cc(Nc2nc3cccc(-c4nc(C)[nH]c4C)c3o2)cc(OC)c1OC,19800 nM,560 nM
COc1cccc(F)c1-c1cccc2nc(NC3CCCCC3)oc12,> 20000 nM,620 nM
COc1cccc(Nc2nc3cccc(-c4c(F)cccc4OC)c3o2)n1,> 20000 nM,620 nM
CCOc1cccc(Nc2nc3cccc(-c4c(F)cccc4OC)c3o2)c1,> 20000 nM,730 nM
COc1cc(Nc2nc3cccc(-c4c(F)cccc4OC(C)C)c3o2)cc(OC)c1OC,> 20000 nM,970 nM
COc1cccc(F)c1-c1cccc2nc(Nc3ccccc3)oc12,> 20000 nM,1000 nM
COc1ccc(C)cc1-c1cccc2nc(Nc3cc(OC)c(OC)c(OC)c3)oc12,14500 nM,1100 nM
COc1cc(Nc2nc3cccc(-c4c(OC)cccc4OC)c3o2)cc(OC)c1OC,> 20000 nM,1200 nM
COc1ccc(Nc2nc3cccc(-c4c(F)cccc4OC)c3o2)cc1,> 20000 nM,1400 nM
COc1cccc(F)c1-c1cccc2nc(N)oc12,> 20000 nM,2800 nM
COc1cccc(F)c1-c1cccc2nc(NC3CCOCC3)oc12,> 20000 nM,3200 nM
COc1cc(Nc2nc3cccc(-c4ccccc4OC(F)(F)F)c3o2)cc(OC)c1OC,> 20000 nM,4000 nM
COc1cc(Nc2nc3cccc(-c4ccccc4-c4cn[nH]c4)c3o2)cc(OC)c1OC,> 20000 nM,9300 nM
